In US8007991B2, “Three-dimensional physiological matrices for oncological testing, and methods for their production and use” (priority 2006, dated 2011):

Tested on: Patient Sample GS-640, kidney tissue (renal cell carcinoma)
Test: Tumor fragment growth and invasion (cell migration) in three-dimensional gel matrix, 48-well plate chemotherapy screening
Assay type: cell-based, human
Conditions: 5 days treatment; for number of cells that have grown and invaded away from the solid tumor fragment / distance of cell migration away from the solid tumor fragment: 37 degrees Celsius; for number of cells that have grown and invaded away from the solid tumor fragment: 5% CO2, photomicrograph compared with untreated control (FIG. 5); for response to the drug (overall): renal cell carcinoma patient sample; for distance of cell migration away from the solid tumor fragment: 5% CO2, photomicrograph
From the text: FIGS. 1-8 are photographic and photomicrographic images which show, by way of example, use of the means and methods of the present invention with respect to a tissue sample removed from a patient. With respect to FIGS. 1-8, Patient Sample GS-640, comprising kidney tissue, was removed from the patient by a surgeon during surgery.
Tissue analysis and screening in accordance with the invention were requested by the surgeon, and proper consent was obtained from the patient prior to surgical removal of a sample quantity of tissue from the RHS Kidney. The patient was diagnosed with renal cell carcinoma. A tissue sample of approximately 1 gram in quantity was removed from the patient during surgery, and was placed into a 25 ml sample jar, and immersed in sterile saline. The tumor tissue was kept at 4 degrees centigrade until processed for the screening of therapeutic compounds in accordance with the means and methods of the invention. All procedures were performed under sterile conditions in a bio-safety laminar flow hood.
FIG. 1 is a photographic image showing the mechanical division of the sample into portions to be tested. The sample has been prepared by dissecting away any non viable tissue and blood prior to mincing into 1-2 mm pieces using sterile disposable scalpels.
FIG. 2 is a photographic image showing tumor sample portions which have been placed into each well of a 48 well plate, and been submersed in a gel matrix mixture according to the invention. After insertion of the portions, the mixture was allowed to form into a gel at room temperature for approximately 30 minutes. Once the gel formed around the fully immersed tumor fragments, nutrient rich media was added as a liquid overlay that permeated the entire gel and tumor fragment.
Each different chemotherapy and or dose of chemotherapy was added to a set of 6 wells out of the 48-well plate. A total of 7 different chemotherapies were assessed in this plate. One set of six wells were not treated with drug and thus acted as ‘control conditions’ for tumor fragment growth and invasion. Each of the eight vertical lanes containing six separate wells was marked with a symbol for each chemotherapy/dose used and noted correspondingly on data collection sheets. […] The plates were then placed in a conventional 37 degree Celsius incubator at 5% CO2.
This image is thus representative of all wells at Day 0 with or without chemotherapeutics. Images were made with a 400× magnification phase contrast micrograph using ZEISS camera specs.
Noteworthy is the halo of cells and increased cell density as compared with the results shown at Day 3 of the test. The lines on the images have been drawn to show the distance measurements within which approximately 95% of the migrating cells have migrated away from the margins of the tissue sample.

Row | SMILES | number of cells that have grown and invaded away from the solid tumor fragment | response to the drug (overall) | distance of cell migration away from the solid tumor fragment
1 | N.N.[Cl][Pt][Cl] [Cisplatin] | identical in appearance and cell numbers to the control sample | failed chemotherapy | –
2 | CC(=O)O[C@H]1C(=O)[C@@]2(C)[C@H]([C@H](OC(=O)c3ccccc3)[C@]3(O)C[C@H](OC(=O)[C@H](O)[C@@H](NC(=O)c4ccccc4)c4ccccc4)C(C)=C1C3(C)C)[C@]1(OC(C)=O)CO[C@@H]1C[C@@H]2O [Taxol, Paclitaxel] | a drop in both the distance and the number of cells | – | a drop in both the distance and the number of cells
3 | CC(=O)O[C@@]12CO[C@@H]1C[C@H](O)[C@@]1(C)C(=O)[C@H](O)C3=C(C)[C@@H](OC(=O)[C@H](O)[C@@H](NC(=O)OC(C)(C)C)c4ccccc4)C[C@@](O)([C@@H](OC(=O)c4ccccc4)[C@H]21)C3(C)C [Docetaxol, Docetaxel] | fewer number of invading cells than the control | moderate response | longer migratory distance than treatment with Taxol
